Test results from patent US20220306585A1, “PYRAZOLE DERIVATIVES FOR CONTROLLING ARTHROPODS” (Bayer Animal Health GmbH, priority 2019, published 2022).
Values after ≈ are worked out from the molar mass of the structure shown.

Legend:
[1] = tested on: Dermacentor variabilis nymph; assay: Antiparasitic activity after administration to rats: ticks; type: in vivo
Protocol: (§1) Measurement of the Antiparasitic Activity after Administration of a Prodrug to Rats Compounds were dissolved in the appropriate volume of glycerol formal (p.a.) just before application to the animals (dose volume was adjusted to 0.03 mL/kg bodyweight). 5 rats per group were either injected intraperitoneally or subcutaneously. Rats were infested with 30 Dermacentor variabilis nymphs on study days −2, 7, 14, 21, 28, 35 and 30 adult Ctenocephalides fleas on study days −1, 8, 15, 22, 29, 36. Parasite counts were performed on study days 2, 9, 16, 23, 30, 37. Percent efficacy was calculated as arithmetic mean parasite numbers as life attached tick numbers and live flea numbers of the respective study group in comparison to parasite counts on a placebo-treated control group. Infestation of groups with less than 75% efficacy on two consecutive counting occasions will terminated for the respective parasite.

[2] = Measurement of stability of prodrugs in buffer at pH 7.4; type: physicochemical; settings: PBS buffer pH 7.4, 37° C., HPLC peak area, read-out: % Recovery after 24 h (stability at pH 7.4)
Protocol: Preparation of the PBS buffer solution pH 7.4: 90 g sodium chloride, 13.61 g potassium dihydrogen phosphate, 83.35 g 1M aqueous sodium hydroxide were dissolved in water. More water was added up to a total volume of 1 L. This solution was diluted 1:10 with water. Eventually, pH was adjusted to pH 7.4 by the addition of phosphoric acid.
Measurement of Stability of Prodrugs in Buffer at pH 7.4
0.15 mg of the test compound were dissolved in 0.1 mL dimethylsulfoxide and 0.4 mL acetonitrile. For complete dissolution, the HPLC vial with the sample solution was shaken and treated with ultrasound. Then, 1.0 mL of PBS buffer solution pH 7.4 was added and the sample was vortexed. The sample solution was analysed by HPLC (method 8) to determine the amount of the test compound at a particular time over a period of 24 h at 37° C. The peak areas, given as percentage of total area, are used for quantification. In addition, the reaction mixture was analysed by method 9 (HPLC-MS) at the final timepoint.

[3] = tested on: Ctenocephalides felis adult; assay: Antiparasitic activity after administration to rats: fleas; type: in vivo
Protocol: as §1

[4] = Measurement of solubility in buffer at pH 6.5; type: physicochemical; settings: aqueous buffer, kinetic from dmso stock; PBS buffer pH 6.5, shaken 24 h at rt, LC-MSMS; read-out: Solubility of example compounds at pH 6.5
Protocol: Measurement of Solubility in Buffer at pH 6.5 2-4 mg of the test compound are dissolved in DMSO to reach a concentration of 50 g/L (solution A). To 10 μL of this solution 960 μL PBS buffer pH 6.5 are added (final concentration: […]); the mixture is shaken for 24 h at rt in a 96 well plate. An aliquot is centrifuged at 42000 rpm für 30 min. The supernatant is diluted with acetonitrile/water (8:2) 1:10 and 1:1000 resp. This diluted samples are analyzed by LC-MSMS. Calibration: 10 μL of solution A are diluted with 823 μL DMSO (final concentration: 600 μg/mL), which is further diluted with acetonitrile/water 8:2 by a factor of 100 (provides solution B). The calibration curve is obtained from solution B by further diluting with acetonitrile/water 8:2 with target concentrations of 1.2-12-60-600 ng/mL and injecting these four solutions for MS measurement. PBS-Puffer: 6.18 g sodium chloride and 3.96 g sodium dihydrogen phosphate are dissolved in 1 L aqua dist., the pH is adjusted to 6.5 with IN sodium hydroxide.

[5] = Degradation of prodrugs and release of parent drug in rat plasma; type: in vitro ADME; settings: male, Hannover-Janvier RjHan, rat plasma (Li-heparin), 37° C., percent area of prodrug at t0
Protocol: Measurement of Release of Parent Drug in Rat Plasma 1 mg of the test compound was dissolved in 0.5 mL acetonitrile/dimethylsulfoxide 9:1. For complete dissolution the HPLC vial was shaken and treated with ultrasound. 20 μL of this solution were added to 1 mL of rat plasma (Li-heparin plasma, Hannover-Janvier rat, RjHan male) with vortexing at a temperature of 37° C. Aliquots (100 μL each) were taken at 0.17, 0.5, 1, 1.5, 2 and 4 hours. Each aliquot was transferred to a vial containing 300 μL of acetonitrile/citric acid buffer pH 3 8:2. These solutions were centrifuged at 5000 rpm for 10 minutes. The supernatant was analysed by HPLC (Method 8) to determine the amount of the test compound. In addition, the reaction mixture was analysed by method 9 (HPLC-MS) at the final timepoint. Both decrease of the prodrug concentration and increase of parent drug concentration were monitored. All data is given as percent area of the prodrug at to.

[6] = sc, versus parent drug also injected subcutaneously

Row | Compound | recovery at 24 h, 0.1 mg/mL [2] | solubility at 24 h [4] | recovery at 0.17 h, 39 µg/mL [5] | recovery at 0.5 h, 39 µg/mL [5] | recovery at 1 h, 39 µg/mL [5] | recovery at 1.5 h, 39 µg/mL [5] | recovery at 2 h, 39 µg/mL [5] | recovery at 4 h, 39 µg/mL [5] | further results
1 | Cn1nc(C(F)(F)C(F)(F)F)c(C(F)(F)F)c1-n1cc(-c2ccc(Cl)c(C(=O)N(COC(=O)CCCC(=O)O)C3(C#N)CC3)c2)cn1 [Example 4, 5-{[{2-Chloro-5-[2′-methyl-5′-(pentafluoroethyl)-4′-(trifluoromethyl)-2′H-[1,3′-bipyrazol]-4-yl]benzoyl}(1-cyanocyclopropyl)amino]methoxy}-5-oxopentanoic acid] | 100% | 179 µg/mL (≈ 257 µM) | 73% | 42% | 18% | 9% | 0% | 0% | tick efficacy on rats compared with parent drug [1, 6]: superior; flea efficacy on rats compared with parent drug [3, 6]: superior
2 | N#CC1(N(COC(=O)CCCC(=O)O)C(=O)c2cc(-c3cnn(-c4c(Cl)cc(C(F)(C(F)(F)F)C(F)(F)F)cc4OC(F)(F)F)c3)ccc2Cl)CC1 [Example 9, 5-{[(2-Chloro-5-{1-[2-chloro-4-(1,1,1,2,3,3,3-heptafluoropropan-2-yl)-6-(trifluoromethoxy)phenyl]-1H-pyrazol-4-yl}benzoyl)(1-cyanocyclopropyl)amino]methoxy}-5-oxopentanoic acid] | 100% | 10 µg/mL (≈ 12.6 µM) | 89% | 77% | 66% | 56% | 48% | 29% | In-vivo Efficacy SD2 ([1]; 12.22 mg/kg sc, Dermacentor variabilis nymph, study day 2): 99%; In-vivo Efficacy SD9 ([1]; 12.22 mg/kg sc, Dermacentor variabilis nymph, study day 9): 100%; In-vivo Efficacy SD16 ([1]; 12.22 mg/kg sc, Dermacentor variabilis nymph, study day 16): 96%; In-vivo Efficacy SD23 ([1]; 12.22 mg/kg sc, Dermacentor variabilis nymph, study day 23): 98%; In-vivo Efficacy SD30 ([1]; 12.22 mg/kg sc, Dermacentor variabilis nymph, study day 30): 85%; In-vivo Efficacy SD37 ([1]; 12.22 mg/kg sc, Dermacentor variabilis nymph, study day 37): 49%; In-vivo Efficacy SD2 ([3]; 12.22 mg/kg sc, Ctenocephalides felis adult, study day 2): 100%; In-vivo Efficacy SD9 ([3]; 12.22 mg/kg sc, Ctenocephalides felis adult, study day 9): 97%; In-vivo Efficacy SD16 ([3]; 12.22 mg/kg sc, Ctenocephalides felis adult, study day 16): 96%; In-vivo Efficacy SD23 ([3]; 12.22 mg/kg sc, Ctenocephalides felis adult, study day 23): 97%; In-vivo Efficacy SD30 ([3]; 12.22 mg/kg sc, Ctenocephalides felis adult, study day 30): 91%; In-vivo Efficacy SD37 ([3]; 12.22 mg/kg sc, Ctenocephalides felis adult, study day 37): 46%
3 | CC(C)(CC(=O)OCN(C(=O)c1cc(-c2cnn(-c3c(Cl)cc(C(F)(C(F)(F)F)C(F)(F)F)cc3OC(F)(F)F)c2)ccc1Cl)C1(C#N)CC1)C(=O)O [Example 14, 4-{[(2-Chloro-5-{1-[2-chloro-4-(1,1,1,2,3,3,3-heptafluoropropan-2-yl)-6-(trifluoromethoxy)phenyl]-1H-pyrazol-4-yl}benzoyl)(1-cyanocyclopropyl)amino]methoxy}-2,2-dimethyl-4-oxobutanoic acid] | 63% | 5 µg/mL (≈ 6.19 µM) |  |  |  |  |  |  | 
4 | Cn1nc(C(F)(F)C(F)(F)F)c(C(F)(F)F)c1-n1cc(-c2ccc(Cl)c(C(=O)N(COC(=O)[C@H]3CC[C@H](C(=O)O)CC3)C3(C#N)CC3)c2)cn1 [Example 12, (trans)-4-({[{2-Chloro-5-[2′-methyl-5′-(pentafluoroethyl)-4′-(trifluoromethyl)-2′H-[1,3′-bipyrazol]-4-yl]benzoyl}(1-cyanocyclopropyl)amino]methoxy}carbonyl)cyclohexane-1-carboxylic acid] | 100% | 46 µg/mL (≈ 62.4 µM) | 91% | 70% | 49% | 33% | 22% | 0% | 
5 | Cn1nc(C(F)(F)C(F)(F)F)c(C(F)(F)F)c1-n1cc(-c2ccc(Cl)c(C(=O)N(COC(=O)CCC(=O)O)C3(C#N)CC3)c2)cn1 [Example 6, 4-{[{2-Chloro-5-[2′-methyl-5′-(pentafluoroethyl)-4′-(trifluoromethyl)-2′H-[1,3′-bipyrazol]-4-yl]benzoyl}(1-cyanocyclopropyl)amino]methoxy}-4-oxobutanoic acid] | 90% | 200 µg/mL (≈ 293 µM) |  |  |  |  |  |  | 
6 | Cn1nc(C(F)(F)C(F)(F)F)c(C(F)(F)F)c1-n1cc(-c2ccc(Cl)c(C(=O)N(COC(=O)/C=C/C(=O)O)C3(C#N)CC3)c2)cn1 [Example 7, (2E)-4-{[{2-Chloro-5-[2′-methyl-5′-(pentafluoroethyl)-4′-(trifluoromethyl)-2′H-[1,3′-bipyrazol]-4-yl]benzoyl}(1-cyanocyclopropyl)amino]methoxy}-4-oxobut-2-enoic acid] | 96% |  | 84% | 58% | 26% | 10% | 4% | 0% | 
7 | Cn1nc(C(F)(F)C(F)(F)F)c(C(F)(F)F)c1-n1cc(-c2ccc(Cl)c(C(=O)N(COC(=O)C3(C(=O)O)CC3)C3(C#N)CC3)c2)cn1 [Example 5, 1-({[{2-Chloro-5-[2′-methyl-5′-(pentafluoroethyl)-4′-(trifluoromethyl)-2′H-[1,3′-bipyrazol]-4-yl]benzoyl}(1-cyanocyclopropyl)amino]methoxy}carbonyl)cyclopropane-1-carboxylic acid] | 71% | 171 µg/mL (≈ 246 µM) |  |  |  |  |  |  | 
8 | Cn1nc(C(F)(F)C(F)(F)F)c(C(F)(F)F)c1-n1cc(-c2ccc(Cl)c(C(=O)N(COC(=O)c3ccc(C(=O)O)cc3)C3(C#N)CC3)c2)cn1 [Example 10, 4-({[{2-Chloro-5-[2′-methyl-5′-(pentafluoroethyl)-4′-(trifluoromethyl)-2′H-[1,3′-bipyrazol]-4-yl]benzoyl}(1-cyanocyclopropyl)amino]methoxy}carbonyl)benzoic acid] | 100% | 31 µg/mL (≈ 42.4 µM) | 99% | 98% | 96% | 94% | 92% | 85% | 
9 | Cn1nc(C(F)(F)C(F)(F)F)c(C(F)(F)F)c1-n1cc(-c2ccc(Cl)c(C(=O)N(COC(=O)CC(C)(C)C(=O)O)C3(C#N)CC3)c2)cn1 [Example 2, 4-{[{2-Chloro-5-[2′-methyl-5′-(pentafluoroethyl)-4′-(trifluoromethyl)-2′H-[1,3′-bipyrazol]-4-yl]benzoyl}(1-cyanocyclopropyl)amino]methoxy}-2,2-dimethyl-4-oxobutanoic acid] | 55% | 71 µg/mL (≈ 99.9 µM) |  |  |  |  |  |  | 
